Here are results for 31 compounds from publication PMC7587356, “High-Throughput Screening for Inhibitors of the SARS-CoV-2 Protease Using a FRET-Biosensor” (Molecules, 2020).

Where a name gives a salt, the structure may show the parent alone. Read-outs that look alike come from different tables or passages of the source.

The target in this test is SARS-CoV-2 3CLpro (Severe acute respiratory syndrome coronavirus 2, UniProt P0DTD1). The experiment in a line: biochemical. The format is biochemical. The arrangement: Replicate_1 / Replicate_2 / mean / mean (LOPAC_screen_w_protease): unit not given here. To be noted: for inhibition at 5 µM: 4 h; for mean (LOPAC screen with protease) / Replicate_1 (LOPAC screen with protease) / Replicate_2 (LOPAC screen with protease): primary screen at 5 µM.

Where [1] appears, read: LOPAC1280 primary screen with protease, 5 µM compound, replicate 1.
Where [2] appears, read: LOPAC1280 primary screen with protease, 5 µM compound, replicate 2.
[3] abbreviates: sheet LOPAC_screen_w_protease, primary screen with protease, compound at 5 µM, mean of two replicates.
Setting [4] is: sheet LOPAC_screen_w_protease, primary screen with protease, compound at 5 µM, replicate 1.
[5] abbreviates: sheet LOPAC_screen_w_protease, primary screen with protease, compound at 5 µM, replicate 2.
[6] abbreviates: sheet LOPAC_screen_w_protease, mean of two replicates.
The mark [7] stands for this setting: sheet LOPAC_screen_w_protease, replicate 1.
Where [8] appears, read: sheet LOPAC_screen_w_protease, replicate 2.
The mark [9] stands for this setting: sheet LOPAC_screen_w_protease, primary screen of LOPAC1280 at 5 µM with protease, mean of the two replicates.
[10] abbreviates: sheet LOPAC_screen_w_protease, primary screen of LOPAC1280 at 5 µM with protease, replicate 1.
The mark [11] stands for this setting: sheet LOPAC_screen_w_protease, primary screen of LOPAC1280 at 5 µM with protease, replicate 2.
The mark [12] stands for this setting: sheet LOPAC_screen_w_protease, LOPAC1280 at 5 µM, mean of two replicates, read-out: mean.
Where [13] appears, read: sheet LOPAC_screen_w_protease, LOPAC1280 at 5 µM, replicate 1, read-out: Replicate_1.
Where [14] appears, read: sheet LOPAC_screen_w_protease, LOPAC1280 at 5 µM, replicate 2, read-out: Replicate_2.
The mark [15] stands for this setting: sheet LOPAC_screen_w_protease, primary screen with protease, mean of two replicates.
[16] abbreviates: sheet LOPAC_screen_w_protease, primary screen with protease, replicate 1.
Where [17] appears, read: sheet LOPAC_screen_w_protease, primary screen with protease, replicate 2.
The mark [18] stands for this setting: sheet LOPAC_screen_w_protease, primary screen of LOPAC1280 at 5 µM with protease, mean of the two replicates, read-out: mean.
[19] abbreviates: sheet LOPAC_screen_w_protease, primary screen of LOPAC1280 at 5 µM with protease, replicate 1, read-out: Replicate_1.
Where [20] appears, read: sheet LOPAC_screen_w_protease, primary screen of LOPAC1280 at 5 µM with protease, replicate 2, read-out: Replicate_2.
The mark [21] stands for this setting: LOPAC1280 primary screen with protease, 5 µM compound, mean of two replicates.
Where [22] appears, read: sheet LOPAC_screen_w_protease, primary screen with protease, 5 µM, mean of two replicates.
The mark [23] stands for this setting: sheet LOPAC_screen_w_protease, primary screen with protease, 5 µM, replicate 1.
Where [24] appears, read: sheet LOPAC_screen_w_protease, primary screen with protease, 5 µM, replicate 2.
Setting [25] is: sheet LOPAC_screen_w_protease, LOPAC1280 primary screen at 5 µM, with protease, mean of the two replicates.
[26] abbreviates: sheet LOPAC_screen_w_protease, LOPAC1280 primary screen at 5 µM, with protease, replicate 1.
[27] abbreviates: sheet LOPAC_screen_w_protease, LOPAC1280 primary screen at 5 µM, with protease, replicate 2.
The mark [28] stands for this setting: sheet LOPAC_screen_w_protease, LOPAC1280 at 5 µM, mean of two replicates.
[29] abbreviates: sheet LOPAC_screen_w_protease, LOPAC1280 at 5 µM, replicate 1.
Where [30] appears, read: sheet LOPAC_screen_w_protease, LOPAC1280 at 5 µM, replicate 2.

In the case of `O=C[C@H](Cl)[C@@H](O)[C@H](O)[C@H](O)CO` [2-Chloro-2-deoxy-D-glucose], under “LOPAC1280 primary screen with protease, 5 µM compound, mean of the two replicates”, the “mean (LOPAC_screen_w_protease)” value is on record as 1.752. The “Replicate_1 (LOPAC_screen_w_protease)” value under setting [1] was determined as 1.144. Further, the “Replicate_2 (LOPAC_screen_w_protease)” value under setting [2] came to 2.361.

Consider `COCCOC(=O)C1=C(C)NC(C)=C(C(=O)OC(C)C)C1c1cccc([N+](=O)[O-])c1` (stereo not drawn) [Nimodipine], for which the inhibition at 5 µM runs as follows: (sheet LOPAC_screen_w_protease, LOPAC1280 primary screen with protease, 5 µM compound, mean of the two replicates, read-out: mean) 4.81%; (sheet LOPAC_screen_w_protease, LOPAC1280 primary screen with protease, 5 µM compound, replicate 1, read-out: Replicate_1) 3.58%; (sheet LOPAC_screen_w_protease, LOPAC1280 primary screen with protease, 5 µM compound, replicate 2, read-out: Replicate_2) 6.04%.

With `NC(CP(=O)(O)O)C(=O)O` (racemic) [(±)-2-Amino-3-phosphonopropionic acid], under setting [3], the mean turned out to be 3.099. The Replicate_1 under setting [4] is 4.251. Moreover, the Replicate_2 under setting [5] is 1.946.

For the compound `CC(N)(Cc1ccc(O)c(O)c1)C(=O)O` (racemic), the “mean (LOPAC screen with protease)” value under setting [6] turned out to be 6.44. In addition, the “Replicate_1 (LOPAC screen with protease)” value under setting [7] stood at 5.736. Further, under setting [8], the “Replicate_2 (LOPAC screen with protease)” value is on record as 7.145.

Under setting [3], `O=C(OCCN1CCCCC1)c1c[nH]c2ccccc12` [SB 203186] had a mean of 2.639. The Replicate_1 under setting [4] is listed as 2.947. This compound gave a Replicate_2 under setting [5] of 2.331.

On to `C[C@@H]1O[C@@H](O[C@H]2C[C@@H](O)[C@]3(CO)[C@H]4[C@H](O)C[C@]5(C)[C@@H]([C@@H]6COC(=O)C6)CC[C@]5(O)[C@@H]4CC[C@]3(O)C2)[C@H](O)[C@H](O)[C@H]1O` [Dihydroouabain], for which the mean under setting [9] was 3.947. For the same compound, the Replicate_1 under setting [10] is given as 5.984. This compound had a Replicate_2 under setting [11] of 1.91.

As to `C[N+](C)(C)CCOC(=O)CCC(=O)OCC[N+](C)(C)C` [Succinylcholine chloride], the inhibition at 5 µM by setting is: under setting [12], 1.08%; under setting [13], 1.05%; under setting [14], 1.11%.

`C#CCn1c(=O)c2c(ncn2C)n(C)c1=O` [3,7-Dimethyl-I-propargylxanthine] displayed a mean under setting [15] of 2.439. Under setting [16], this compound gave a Replicate_1 of 3.614. Also, the Replicate_2 under setting [17] is recorded as 1.263.

Consider `Cc1ccc(=O)n(-c2ccccc2)c1` [Pirfenidone], for which the inhibition at 5 µM under setting [18] was 4.02%, the inhibition at 5 µM under setting [19] was 2.71% and the inhibition at 5 µM under setting [20] amounted to 5.33%.

In the case of `CNC(=O)Oc1ccc2c(c1)[C@]1(C)CCN(C)[C@@H]1N2C` [(-)-Physostigmine], the inhibition at 5 µM under setting [18] came to 3.4%, the inhibition at 5 µM under setting [19] came out at 5.4% and the inhibition at 5 µM under setting [20] turned out to be 1.4%.

`C[C@H](O)[C@H](O)[C@H]1CNc2nc(N)[nH]c(=O)c2N1.Cl` came in with a mean under setting [3] of 3.136. The Replicate_1 under setting [4] came to 3.694. Also, the Replicate_2 under setting [5] was determined as 2.577.

`CN(C)C/C=C(/c1ccc(Br)cc1)c1cccnc1` [Zimelidine dihydrochloride]: the inhibition at 5 µM runs as follows: under setting [12], 0.989%; under setting [13], 1.05%; under setting [14], 0.928%.

For the compound `CC1CCCC=CC2CC(O)CC2C(O)C=CC(=O)O1` (stereo not drawn), under setting [21], the “mean (LOPAC_screen_w_protease)” value was 1.348. For the same compound, under setting [1], the “Replicate_1 (LOPAC_screen_w_protease)” value was 0.7493. Moreover, the “Replicate_2 (LOPAC_screen_w_protease)” value under setting [2] came out at 1.9466.

For `O=C(O)Cc1c[nH]c2ccc(O)cc12` [5-Hydroxyindolacetic acid], the mean under setting [22] is reported as -0.3702. This compound came in with a Replicate_1 under setting [23] of 1.641. Moreover, the Replicate_2 under setting [24] was -2.381.

In turn, `N[C@H](C(=O)O)c1cc(O)no1` (racemic) [(±)-Ibotenic acid] came in with a mean under setting [25] of 0.7432. The same compound came in with a Replicate_1 under setting [26] of 1.025. This compound gave a Replicate_2 under setting [27] of 0.4611.

Take `COc1cccc(C(=O)NCCN2CCN(c3ccc(Cl)cc3)CC2)c1`: the mean under setting [15] is on record as 2.269. Under setting [16], this compound returned a Replicate_1 of 1.008. Also, the Replicate_2 under setting [17] came to 3.529.

Under setting [9], `CCCCCCCCCCCCCCCC(=O)NCC(COP(=O)([O-])OCC[N+](C)(C)C)OCC` (racemic) showed a mean of 3.428. The compound also showed a Replicate_1 under setting [10] of 7.48. For the same compound, under setting [11], the Replicate_2 is on record as -0.6245.

`O=C(CCCN1CCC(O)(c2cccc(C(F)(F)F)c2)CC1)c1ccc(F)cc1` [Trifluperidol hydrochloride]: the inhibition at 5 µM runs as follows: (LOPAC1280 primary screen with protease, 5 µM compound, replicate 1, read-out: Replicate_1 (LOPAC_screen_w_protease)) -0.00744%; (LOPAC1280 primary screen with protease, 5 µM compound, replicate 2, read-out: Replicate_2 (LOPAC_screen_w_protease)) 3.06%. The “mean (LOPAC_screen_w_protease)” value under setting [21] was found to be 1.525.

`N[C@H](CCC(=O)NCS(=O)(=O)O)C(=O)O` [gamma-D-Glutamylaminomethylsulfonic acid]: under setting [28], the mean worked out at 1.223. Under setting [29], this compound showed a Replicate_1 of 4.708. Moreover, the Replicate_2 under setting [30] was -2.2619.

The compound `C=CC(N)CCC(=O)O` (racemic) [(±)-gamma-Vinyl GABA] returned a mean under setting [22] of -0.2228. The Replicate_1 under setting [23] is reported as -0.2758. Besides, the Replicate_2 under setting [24] was -0.1698.

As for `CC[C@@H]1C(=O)OC[C@@H]1Cc1cncn1C.Cl` [(+)-Pilocarpine hydrochloride], the mean under setting [25] is 0.6668. Besides, under setting [26], the Replicate_1 amounted to 2.011. This compound also showed a Replicate_2 under setting [27] of -0.6778.

As for `Br.Br.NC(N)=NCCSSCCN=C(N)N` [Guanidinoethyl disulfide dihydrobromide], the “mean (LOPAC screen with protease)” value under setting [6] is 36.2152. The “Replicate_1 (LOPAC screen with protease)” value under setting [7] was found to be 35.2116. Besides, the “Replicate_2 (LOPAC screen with protease)” value under setting [8] came to 37.2188.

Compound `Cl.O=S(=O)(c1cccc2c(I)cccc12)N1CCCNCC1` [ML-7] returned a Replicate_1 of 2.299, a Replicate_2 of 4.928 and a mean of 3.614.

As for `CC(=O)[C@H]1CC[C@H]2[C@@H]3CC=C4C[C@@H](OS(=O)(=O)[O-])CC[C@]4(C)[C@H]3CC[C@]12C.[Na+]` [Pregnenolone sulfate sodium], under setting [28], the mean is 1.045. Under setting [29], this compound yielded a Replicate_1 of 0.04623. Further, the Replicate_2 under setting [30] turned out to be 2.043.

In the case of `O=C(CCNNC(=O)c1ccncc1)NCc1ccccc1` [Nialamide], the inhibition at 5 µM under setting [18] was determined as 3.19%, the inhibition at 5 µM under setting [19] was 4.27% and the inhibition at 5 µM under setting [20] was 2.12%.

As to `CC1(C)CCC2=C(O1)c1ccccc1C(=O)C2=O` [beta-Lapachone], the inhibition at 5 µM stood at 0.593% (read-out: Replicate_1), 0.52% (read-out: Replicate_2) and 0.557% (read-out: mean).

Turning to `CC1(C)C(=O)N(CCN2CCC(C(=O)c3ccc(F)cc3)CC2)c2ccccc21.Cl` [LY-310,762 hydrochloride], under setting [21], the “mean (LOPAC_screen_w_protease)” value came to 1.717. For the same compound, the “Replicate_1 (LOPAC_screen_w_protease)” value under setting [1] came to 1.617. Besides, the “Replicate_2 (LOPAC_screen_w_protease)” value under setting [2] is given as 1.816.

For `COc1ccccc1N1CCN(CC(O)COc2cccc3ccccc23)CC1.Cl.Cl` (stereo not drawn) [Naftopidil dihydrochloride], the mean (sheet LOPAC_screen_w_protease, LOPAC1280 primary screen with protease, 5 µM compound, mean of the two replicates) stood at 6.057. Under “sheet LOPAC_screen_w_protease, LOPAC1280 primary screen with protease, 5 µM compound, replicate 1”, the Replicate_1 was found to be 7.362. This compound came in with a Replicate_2 (sheet LOPAC_screen_w_protease, LOPAC1280 primary screen with protease, 5 µM compound, replicate 2) of 4.753.

In turn, `O.c1cnc2c(c1)ccc1cccnc12` [1,10-Phenanthroline monohydrate] registered a mean under setting [22] of 0.3766. The compound also displayed a Replicate_1 under setting [23] of -0.05956. In addition, the Replicate_2 under setting [24] is reported as 0.8127.

For `CCN(CC)CCCC(C)Nc1ccnc2cc(Cl)ccc12` (stereo not drawn) [Chloroquine diphosphate], the inhibition at 5 µM reads like this: (read-out: Replicate_1) 2.19%; (read-out: Replicate_2) 3.74%; (read-out: mean) 2.97%.

As to `CC[N+](CC)(CC)CC` [Tetraethylammonium chloride], the inhibition at 5 µM was 2.25% (read-out: Replicate_1), -1.51% (read-out: Replicate_2) and 0.374% (read-out: mean).
